Data as given in the NIST ThermoML archive (doi:10.1016/j.tca.2013.05.007).

Tests used:
[1] = molar heat capacity at constant pressure; details: 101.33 kPa, Liquid, Large sample (1 g) DSC
[2] = DTA

CCCC[n+]1cccc(C)c1.O=S(=O)([N-]S(=O)(=O)C(F)(F)F)C(F)(F)F
[1]
Details	molar heat capacity at constant pressure [J/K/mol]
293.15 K	541
294.15 K	542
295.15 K	544
296.15 K	546
297.15 K	547
298.15 K	548
299.15 K	550
300.15 K	551
301.15 K	552
302.15 K	553
303.15 K	554
304.15 K	555
305.15 K	556
306.15 K	557
307.15 K	558
308.15 K	559
309.15 K	560
310.15 K	561
311.15 K	562
312.15 K	563
313.15 K	564
314.15 K	564
315.15 K	565
316.15 K	566
317.15 K	567
318.15 K	568
319.15 K	569
320.15 K	570
321.15 K	570
322.15 K	571
323.15 K	572
324.15 K	573
325.15 K	574
326.15 K	575
327.15 K	576
328.15 K	577
329.15 K	578
330.15 K	579
331.15 K	580
332.15 K	581
333.15 K	582

Details	Glass transition temperature [°C]
[2]	-85

CCC[n+]1cccc(C)c1.O=S(=O)([N-]S(=O)(=O)C(F)(F)F)C(F)(F)F
[1]
Details	molar heat capacity at constant pressure [J/K/mol]
293.15 K	510
294.15 K	511
295.15 K	513
296.15 K	514
297.15 K	516
298.15 K	517
299.15 K	518
300.15 K	519
301.15 K	520
302.15 K	521
303.15 K	522
304.15 K	523
305.15 K	524
306.15 K	525
307.15 K	526
308.15 K	527
309.15 K	528
310.15 K	529
311.15 K	530
312.15 K	531
313.15 K	532
314.15 K	532
315.15 K	533
316.15 K	534
317.15 K	535
318.15 K	536
319.15 K	536
320.15 K	537
321.15 K	538
322.15 K	539
323.15 K	540
324.15 K	541
325.15 K	541
326.15 K	542
327.15 K	543
328.15 K	544
329.15 K	545
330.15 K	546
331.15 K	547
332.15 K	548
333.15 K	549

Details	Glass transition temperature [°C]
[2]	-88

CCCCn1cc[n+](C)c1.N#CN=C=[N-] [1-butyl-3-methylimidazolium dicyanamide]
Details	Normal melting temperature [°C]	Triple point temperature [K]	molar heat capacity at constant pressure [J/K/mol]
[1], 293.15 K	–	–	372
[1], 294.15 K	–	–	373
[1], 295.15 K	–	–	374
[1], 296.15 K	–	–	375
[1], 297.15 K	–	–	375
[1], 298.15 K	–	–	376
[1], 299.15 K	–	–	377
[1], 300.15 K	–	–	377
[1], 301.15 K	–	–	378
[1], 302.15 K	–	–	378
[1], 303.15 K	–	–	379
[1], 304.15 K	–	–	379
[1], 305.15 K	–	–	380
[1], 306.15 K	–	–	380
[1], 307.15 K	–	–	381
[1], 308.15 K	–	–	381
[1], 309.15 K	–	–	382
[1], 310.15 K	–	–	382
[1], 311.15 K	–	–	382
[1], 312.15 K	–	–	383
[1], 313.15 K	–	–	383
[1], 314.15 K	–	–	384
[1], 315.15 K	–	–	384
[1], 316.15 K	–	–	384
[1], 317.15 K	–	–	385
[1], 318.15 K	–	–	385
[1], 319.15 K	–	–	385
[1], 320.15 K	–	–	386
[1], 321.15 K	–	–	386
[1], 322.15 K	–	–	387
[1], 323.15 K	–	–	387
[1], 324.15 K	–	–	388
[1], 325.15 K	–	–	388
[1], 326.15 K	–	–	388
[1], 327.15 K	–	–	389
[1], 328.15 K	–	–	389
[1], 329.15 K	–	–	390
[1], 330.15 K	–	–	390
[1], 331.15 K	–	–	391
[1], 332.15 K	–	–	391
[1], 333.15 K	–	–	392
[2], Crystal 1	-6	–	–
[2], Crystal 2	–	225	–

Details	Glass transition temperature [°C]
[2]	-92

CCCCn1cc[n+](C)c1.O=S(=O)([O-])C(F)(F)F [1-butyl-3-methylimidazolium trifluoromethanesulfonate]
Details	Normal melting temperature [°C]	molar heat capacity at constant pressure [J/K/mol]
[1], 323.15 K	–	456
[1], 324.15 K	–	457
[1], 325.15 K	–	458
[1], 326.15 K	–	459
[1], 327.15 K	–	460
[1], 328.15 K	–	461
[1], 329.15 K	–	462
[1], 330.15 K	–	463
[1], 331.15 K	–	464
[1], 332.15 K	–	465
[1], 333.15 K	–	466
[1], 334.15 K	–	467
[1], 335.15 K	–	467
[1], 336.15 K	–	468
[1], 337.15 K	–	469
[1], 338.15 K	–	470
[1], 339.15 K	–	471
[1], 340.15 K	–	472
[1], 341.15 K	–	473
[1], 342.15 K	–	474
[1], 343.15 K	–	475
[1], 344.15 K	–	476
[1], 345.15 K	–	477
[1], 346.15 K	–	477
[1], 347.15 K	–	478
[1], 348.15 K	–	479
[1], 349.15 K	–	480
[1], 350.15 K	–	481
[1], 351.15 K	–	481
[1], 352.15 K	–	482
[1], 353.15 K	–	483
[2], Crystal	12	–

CCCC[n+]1cccc(C)c1.O=S(=O)([O-])C(F)(F)F [1-butyl-3-methylpyridinium trifluoromethanesulfonate]
Details	Normal melting temperature [°C]	molar heat capacity at constant pressure [J/K/mol]
[1], 323.15 K	–	461
[1], 324.15 K	–	462
[1], 325.15 K	–	464
[1], 326.15 K	–	465
[1], 327.15 K	–	467
[1], 328.15 K	–	468
[1], 329.15 K	–	469
[1], 330.15 K	–	471
[1], 331.15 K	–	472
[1], 332.15 K	–	473
[1], 333.15 K	–	474
[1], 334.15 K	–	475
[1], 335.15 K	–	476
[1], 336.15 K	–	478
[1], 337.15 K	–	479
[1], 338.15 K	–	480
[1], 339.15 K	–	481
[1], 340.15 K	–	482
[1], 341.15 K	–	483
[1], 342.15 K	–	485
[1], 343.15 K	–	486
[1], 344.15 K	–	487
[1], 345.15 K	–	488
[1], 346.15 K	–	489
[1], 347.15 K	–	490
[1], 348.15 K	–	491
[1], 349.15 K	–	492
[1], 350.15 K	–	493
[1], 351.15 K	–	494
[1], 352.15 K	–	495
[1], 353.15 K	–	496
[2], Crystal 1	30	–
[2], Metastable crystal	-6	–

Details	Glass transition temperature [°C]
[2]	-76

CC[n+]1cccc(C)c1.O=S(=O)([N-]S(=O)(=O)C(F)(F)F)C(F)(F)F
Details	Normal melting temperature [°C]	molar heat capacity at constant pressure [J/K/mol]
[1], 293.15 K	–	484
[1], 294.15 K	–	486
[1], 295.15 K	–	487
[1], 296.15 K	–	489
[1], 297.15 K	–	490
[1], 298.15 K	–	491
[1], 299.15 K	–	493
[1], 300.15 K	–	494
[1], 301.15 K	–	495
[1], 302.15 K	–	496
[1], 303.15 K	–	497
[1], 304.15 K	–	498
[1], 305.15 K	–	499
[1], 306.15 K	–	500
[1], 307.15 K	–	501
[1], 308.15 K	–	502
[1], 309.15 K	–	502
[1], 310.15 K	–	503
[1], 311.15 K	–	504
[1], 312.15 K	–	505
[1], 313.15 K	–	506
[1], 314.15 K	–	507
[1], 315.15 K	–	507
[1], 316.15 K	–	508
[1], 317.15 K	–	509
[1], 318.15 K	–	510
[1], 319.15 K	–	510
[1], 320.15 K	–	511
[1], 321.15 K	–	512
[1], 322.15 K	–	513
[1], 323.15 K	–	514
[1], 324.15 K	–	514
[1], 325.15 K	–	515
[1], 326.15 K	–	516
[1], 327.15 K	–	517
[1], 328.15 K	–	518
[1], 329.15 K	–	519
[1], 330.15 K	–	519
[1], 331.15 K	–	520
[1], 332.15 K	–	521
[1], 333.15 K	–	522
[2], Crystal	-1	–
